We go through one molecule from patent publication US20050008640A1, “Method of treating transplant rejection” (priority 2003, published 2005).

Test [1] relates to IgG1 alloantibody. The experiment in a line: Alloantibody measurement, IgG1. It counts as in vivo, C57BL/6 mice. The settings on record: serum 21 days after cardiac allograft; dose not stated. As to the method:
(§1) All sera were heat inactivated at 56° C. for 30 minutes and stored at −20° C. prior to analysis. BALB/c T cells were purified from spleen using MACS CD90 (Thy1.2) beads (Miltenyi Biotech, Auburn, Calif.). Briefly, 10^7 cells were resuspended in buffer containing 10 mg/ml of human IgG (Sigma, St. Louis, Mo.). […] The bead/cell mixture was then incubated for 15 minutes at 6-12° C., washed, and resuspended in 500 μl PharMingenStain Buffer (PharMingen , San Diego, Calif.) per 10^8 cells and run through an LS+ selection column. The isolated T cell suspension was adjusted to a concentration of 1×10^6 cells/ml. For flow cytometric analysis BALB/c T cells were incubated with recipient sera (1:50 for IgG2a analysis, 1:40 for IgG1 analysis). Following a 30 minute incubation at 4° C., the cells were washed and resuspended in either goat anti-mouse IgG1-phycoerythrin (PE) or anti-mouse IgG2a-PE antibody (Caltag, Burlingame, Calif.). Cells were analyzed using a Becton Dickinson FACScan (Mountain View, Calif.). Data are presented as mean and SEM of fluorescence intensity corrected for control (naive serum) fluorescence. Statistical analysis was performed using a two-tailed Student's t-test.

Test [2] has as its system anti-CD3 induced IL-2. The experiment in a line: Anti-CD3 induced IL-2 production. Type of test: in vivo, BALB/c mice. Particulars: 12.5 mg/kg p.o. The protocol:
Six to 8 week old BALB/c mice were dosed p.o. with EXAMPLE 3 30 minutes prior to i.v. injection of 75 ng hamster anti-mouse CD3 antibody, 145-2C11 (PharMingen, San Diego, Calif.). Two hours after anti-CD3 injection mice were bled via cardiac puncture, serum was collected and assayed for IL-2 by ELISA (Endogen, Woburn, Mass.).

Test [3] has as its system BALB/c islet grafts in diabetic C57BL/6 recipients. The experiment in a line: Islet transplantation. Type of test: in vivo, C57BL/6 mice. The settings on record: 12 mg/kg oral daily. As to the method: Chemical diabetes was induced in C57BL/6 mice using a single intraperitoneal dose of streptozocin (150 mg/kg) as previously described in Markees, T. G., Serreze, D. V., Phillips, N. E., et al; Diabetes, 48(5): 967-974, 1999. Mice with persistent hyperglycemia of >300 mg/dl were selected for experimentation as allograft recipients. Blood for plasma glucose was monitored thrice weekly (Glucose Analyzer2; Beckman Instruments, Fullerton, Calif.). Islets of Langerhans from BALB/c donors were isolated by collagenase digestion followed by density-gradient separation, as described previously Markees, T. G., Serreze, D. V., Phillips, N. E., et al; Diabetes, 48(5): 967-974, 1999. Approximately 20 islets/g body weight were transplanted into the renal subcapsular space C57BL/6 recipients. Oral treatments were provided daily beginning one day prior to islet transplant through day 28. Rejection was defined as the first of two consecutive days on which the plasma glucose was greater than or equal to 250 mg/dl. To verify the functionality of islet grafts, the graft bearing kidney was removed and placed in 10% formalin for histological analysis. Recurrence of hyperglycemia after graft removal was interpreted as evidence that the graft was the source of insulin in treated mice.

Test [4] deals with BALB/c cardiac allograft in C57BL/6 recipients. The experiment in a line: Neonatal cardiac transplantation. Type of test: in vivo, C57BL/6 mice. Particulars: for cardiac allograft survival on day 13 post transplantation: q.d. from day -1, visual observation and electrocardiogram. From the text:
Neonatal cardiac transplantation was done using a modification of methods described by Judd, K. P. & Trentin, J. J; Transplantation, 11(3): 298-302, 1971 and Fey, T. A., Krause, R. A., Hsieh, G. C., et al; J. Pharmacol. Tox. Methods, 39: 9-17, 1998 which are incorporated herein in their entirety.
Hearts from one to two day old C57BL/6 (isograft) and BALB/c (allograft) pups were removed aseptically and stored in cold PBS until transplant. Adult C57BL/6 mice were used as transplant recipients. Each recipient mouse was transplanted with an isograft heart in the left ear and an allograft heart in the right ear. Mice were anesthetized with avertin (0.25 cc/mouse, i.p.) (2.0 G 2,2,2-Tribromoethanol) (Aldrich, Milwaukee, Wis.) plus 2.0 ml 2-methyl-2-butanol (tert-amyl alcohol) (Aldrich, Milwaukee, Wis.) and protective ointment was applied to eyes after anesthesia. An incision was made in each ear pinnae using a scalpel blade and straight fine forceps were used to create a subcutaneous pocket in the ear. The donor heart was placed into the pocket using a second pair of forceps. On days 5-16, mice were anesthetized with isofluorane (Henry Schein, Melville, N.Y.) /oxygen and the heartbeats were visually assessed using a dissecting microscope. On the final day electrical activity of the cardiac tissue was monitored by electrocardiogram. The ears were then removed and the transplanted tissue were evaluated histologically for evidence of inflammation and necrosis (rejection).

Test [5] deals with BALB/c skin allograft in C57BL/6 recipient mice. Put plainly: Skin transplantation. Type of test: in vivo, C57BL/6 mice. The settings on record: q.d. day -1 to day 9. From the text:
Skin transplantation was done using a modification of a previously described method Chang, A. E. & Sugarbaker, P. H; Transplantation, 29: 381, 1980 and Sugarbaker, P. H. & Chang, A; J. Immunol. Methods, 31: 167, 1979. Tail skin was collected from BALB/c donors, scraped free of fat and fascia and maintained in PBS on ice until transplanted. Partial thickness wounds were created on the backs of C57BL/6 recipient mice and the graft was cut to exactly fit the wound bed. Grafts were adhered to the wound bed with a small amount of wound glue (Henry Schein, Melville, N.Y.), covered with petroleum jelly embedded gauze (Sherwood Medical, St. Louis, Mo.) and bandaged for 5 days. On day 6, bandages were removed and grafts were scored visually for necrosis from day 6 to day 10.

In test [6] the test system is C57BL/6 mice. The experiment in a line: Delayed type hypersensitivity (DTH), mBSA footpad challenge. It counts as in vivo. As to the method: A modification of a method described by Magram, J., Turek, C. W., Killeen, N; Immunity, 4: 471, 1996 and Magram, J., Sfarra, J., Connaughton, S., et al; Ann. NY Acad. Sci., 795: 60-70, 1996 was used. On day 0 C57BL/6 mice were immunized intradermal (i.d.) with 400 μg methylated bovine serum albumin (mBSA) (Sigma Chemical Co., St. Louis, Mo.) in a 1:1 emulsion with complete Freund's adjuvant (Difco Labs, Detroit, Mich.). […] On day 7 post immunization mice were challenged in one hind footpad with 100 μg of mBSA in 20 μl of PBS and in the opposite footpad with PBS alone. Footpad swelling was measured 24 hours after challenge using a vernier caliper.

The test system of test [7] is IgG2a alloantibody. The experiment in a line: Alloantibody measurement, IgG2a. It counts as in vivo, C57BL/6 mice. The settings on record: serum 21 days after cardiac allograft; dose not stated. As to the method:
as §1

In the case of `COc1cc(-c2nn(C3CCC(N4CCN(C)CC4)CC3)c3ncnc(N)c23)ccc1NC(=O)c1cc2ccccc2n1C` (centres unmarked) [Example 3], the “IgG1 alloantibody isotype production” value in test [1] was “completely inhibited”. In addition, the “inhibition of anti-CD3 induced IL-2” value in test [2] is reported as “complete inhibition”. For the same molecule, the “histological evaluation of islet grafts” value in test [3] was “minimal intra-graft inflammation”. Further, the “glycemic state of islet graft recipients” value in test [3] (day -1 through day 28) is recorded as “normoglycemic”. Besides, in test [3] (day -1 through day 28), the “maintenance of BALB/c islet cell grafts” value came out at 28 days. The “cardiac allograft survival on day 13 post transplantation” value in test [4] (6 mg/kg p.o.) is 60%; in test [4] (12 mg/kg p.o.) it was 100%. Also, in test [4] (Example 3 3 mg/kg p.o., q.d.), the “Percent Survival Day 16 Post Transplant (cardiac allograft, electrocardiogram)” value came out at 10%. In addition, the “histological evaluation of transplanted allograft hearts” value in test [4] (compared to vehicle treated hearts) was “decrease in peri- and intra-graft inflammation and necrosis”. Also, the “survival of skin allografts” value in test [5] (6 mg/kg p.o.) was 42%; in test [5] (12 mg/kg p.o.), 90%. Besides, the “inhibition of DTH” value in test [6] (treatment given only on days 7 and 8 (around the antigen challenge)) stood at 65%. Further, the “inhibition of footpad swelling 24 hours post challenge” value in test [6] (treatment p.o., q.d. from day -1 to day 8) is recorded as 77%. Moreover, in test [7], the “IgG2a alloantibody isotype production” value was “completely inhibited”.
